According to US20110166191A1, “3-(2-amino-ethyl)-5-(3-cyclohexyl-propylidene)-thiazolidine-2,4-dione and its derivatives as multiple signaling pathway inhibitors and for the treatment of cancer” (priority 2010, published 2011):

Legend:
Type in all cases: cell-based
A549/ATCC = assay: NCI 60 cell line panel screening; conditions: Homo sapiens, Non-Small Cell Lung Cancer, read-out: Growth Inhibition (GI50)
Description: (§1) Compound 3-(2-aminoethyl)-5-(3-cyclohexylpropylidene)thiazolidine-2,4-dione was screened at five concentrations in National Cancer Institute (NCI) 60-cell line panel according to NCI's protocol for growth inhibition.

ACHN = assay: NCI 60 cell line panel screening; conditions: Homo sapiens, Renal Cancer, read-out: Growth Inhibition (GI50)
Description: as §1

BT-549 = assay: NCI 60 cell line panel screening; conditions: Homo sapiens, Breast Cancer, read-out: Growth Inhibition (GI50)
Description: as §1

CAKI-1 = assay: NCI 60 cell line panel screening; conditions: Homo sapiens, Renal Cancer, read-out: Growth Inhibition (GI50)
Description: as §1

CCRF-CEM = assay: NCI 60 cell line panel screening; conditions: Homo sapiens, Leukemia, read-out: Growth Inhibition (GI50)
Description: as §1

COLO 205 = assay: NCI 60 cell line panel screening; conditions: Homo sapiens, Colon Cancer, read-out: Growth Inhibition (GI50)
Description: as §1

DU-145 = assay: NCI 60 cell line panel screening; conditions: Homo sapiens, Prostate Cancer, read-out: Growth Inhibition (GI50)
Description: as §1

EKVX = assay: NCI 60 cell line panel screening; conditions: Homo sapiens, Non-Small Cell Lung Cancer, read-out: Growth Inhibition (GI50)
Description: as §1

HCC-2998 = assay: NCI 60 cell line panel screening; conditions: Homo sapiens, Colon Cancer, read-out: Growth Inhibition (GI50)
Description: as §1

HCT-116 = assay: NCI 60 cell line panel screening; conditions: Homo sapiens, Colon Cancer, read-out: Growth Inhibition (GI50)
Description: as §1

HCT-15 = assay: NCI 60 cell line panel screening; conditions: Homo sapiens, Colon Cancer, read-out: Growth Inhibition (GI50)
Description: as §1

HL-60(TB) = assay: NCI 60 cell line panel screening; conditions: Homo sapiens, Leukemia, read-out: Growth Inhibition (GI50)
Description: as §1

HOP-62 = assay: NCI 60 cell line panel screening; conditions: Homo sapiens, Non-Small Cell Lung Cancer, read-out: Growth Inhibition (GI50)
Description: as §1

HOP-92 = assay: NCI 60 cell line panel screening; conditions: Homo sapiens, Non-Small Cell Lung Cancer, read-out: Growth Inhibition (GI50)
Description: as §1

HS 578T = assay: NCI 60 cell line panel screening; conditions: Homo sapiens, Breast Cancer, read-out: Growth Inhibition (GI50)
Description: as §1

HT29 = assay: NCI 60 cell line panel screening; conditions: Homo sapiens, HT-29, Colon Cancer, read-out: Growth Inhibition (GI50)
Description: as §1

IGROV1 = assay: NCI 60 cell line panel screening; conditions: Homo sapiens, IGROV-1, Ovarian Cancer, read-out: Growth Inhibition (GI50)
Description: as §1

KM12 = assay: NCI 60 cell line panel screening; conditions: Homo sapiens, Colon Cancer, read-out: Growth Inhibition (GI50)
Description: as §1

MCF7 = assay: NCI 60 cell line panel screening; conditions: Homo sapiens, Breast Cancer, read-out: Growth Inhibition (GI50)
Description: as §1

NCI-H226 = assay: NCI 60 cell line panel screening; conditions: Homo sapiens, Non-Small Cell Lung Cancer, read-out: Growth Inhibition (GI50)
Description: as §1

OVCAR-3 = assay: NCI 60 cell line panel screening; conditions: Homo sapiens, Ovarian Cancer, read-out: Growth Inhibition (GI50)
Description: as §1

OVCAR-8 = assay: NCI 60 cell line panel screening; conditions: Homo sapiens, Ovarian Cancer, read-out: Growth Inhibition (GI50)
Description: as §1

PC-3 = assay: NCI 60 cell line panel screening; conditions: Homo sapiens, Prostate Cancer, read-out: Growth Inhibition (GI50)
Description: as §1

RPMI-8226 = assay: NCI 60 cell line panel screening; conditions: Homo sapiens, Leukemia, read-out: Growth Inhibition (GI50)
Description: as §1

SF-268 = assay: NCI 60 cell line panel screening; conditions: Homo sapiens, CNS Cancer, read-out: Growth Inhibition (GI50)
Description: as §1

SF-295 = assay: NCI 60 cell line panel screening; conditions: Homo sapiens, CNS Cancer, read-out: Growth Inhibition (GI50)
Description: as §1

SK-MEL-2 = assay: NCI 60 cell line panel screening; conditions: Homo sapiens, Melanoma, read-out: Growth Inhibition (GI50)
Description: as §1

SK-MEL-5 = assay: NCI 60 cell line panel screening; conditions: Homo sapiens, Melanoma, read-out: Growth Inhibition (GI50)
Description: as §1

SK-OV-3 = assay: NCI 60 cell line panel screening; conditions: Homo sapiens, Ovarian Cancer, read-out: Growth Inhibition (GI50)
Description: as §1

SNB-19 = assay: NCI 60 cell line panel screening; conditions: Homo sapiens, CNS Cancer, read-out: Growth Inhibition (GI50)
Description: as §1

SNB-75 = assay: NCI 60 cell line panel screening; conditions: Homo sapiens, CNS Cancer, read-out: Growth Inhibition (GI50)
Description: as §1

T-47D = assay: NCI 60 cell line panel screening; conditions: Homo sapiens, T47D, Breast Cancer, read-out: Growth Inhibition (GI50)
Description: as §1

TK-10 = assay: NCI 60 cell line panel screening; conditions: Homo sapiens, Renal Cancer, read-out: Growth Inhibition (GI50)
Description: as §1

UACC-62 = assay: NCI 60 cell line panel screening; conditions: Homo sapiens, Melanoma, read-out: Growth Inhibition (GI50)
Description: as §1

UO-31 = assay: NCI 60 cell line panel screening; conditions: Homo sapiens, Renal Cancer, read-out: Growth Inhibition (GI50)
Description: as §1

DU145 cells = assay: Cell apoptosis assay (annexin V/PI flow cytometry); conditions: 24 hrs
Experimental: (§2) FIG. 2. Indicated cancer cells were treated with Formula II synthesized as described in Example 4, 3-(2-aminoethyl)-5-(3-cyclohexylpropylidene)thiazolidine-2,4-dione, at indicated concentrations for 24 hrs, then stained with Annexin-V/PI and analyzed by flow cytometry.
(§3) Apoptosis was measured by flow cytometry using annexin V/propidium iodide (PI) as staining reagent. Briefly, after treatment with test compound of varying concentrations for varying intervals (4, 8, 18, 36 hrs), cells were washed twice with cold PBS and then resuspended in 1× binding buffer (10 mM HEPES [N-2-hydroxyethylpiperazine-N′-2-ethanesulfonic acid]/NaOH, pH 7.4, 140 mM […], 2.5 mM CaCl2). The cells were then incubated with annexin V-fluorescein isothiocyanate (FITC) (BD PharMingen, San Diego, Calif.) and 5 μg/mL propidium iodide (PI), and incubated for 15 minutes at room temperature in the dark per the manufacturer's instructions. The samples were analyzed by flow cytometry using a Becton Dickinson FACScan (Becton Dickinson, San Jose, Calif.) within 1 hr to determine the percentage of cells displaying annexin V staining (early apoptosis) or both annexin V and PI staining (late apoptosis).

M12 cells = assay: Cell apoptosis assay (annexin V/PI flow cytometry); conditions: 24 hrs
Experimental: as §2, §3

U937 cells = assay: Cell apoptosis assay (annexin V/PI flow cytometry); conditions: 24 hrs
Experimental: as §2, §3

NCCN1C(=O)S/C(=C\CCC2CCCCC2)C1=O [Example 4, 3-(2-aminoethyl)-5-(3-cyclohexylpropylidene)thiazolidine-2,4-dione]
GI50 (A549/ATCC): 2.5 µM
GI50 (ACHN): 1.84 µM
GI50 (BT-549): 2.05 µM
GI50 (CAKI-1): 1.64 µM
GI50 (CCRF-CEM): 2.5 µM
GI50 (COLO 205): 2.19 µM
GI50 (DU-145): 1.76 µM
GI50 (EKVX): 2.53 µM
GI50 (HCC-2998): 1.78 µM
GI50 (HCT-116): 1.67 µM
GI50 (HCT-15): 2.47 µM
GI50 (HL-60(TB)): 2.04 µM
GI50 (HOP-62): 3.25 µM
GI50 (HOP-92): 5.41 µM
GI50 (HS 578T): 2.49 µM
GI50 (HT29): 2.04 µM
GI50 (IGROV1): 1.96 µM
GI50 (KM12): 1.77 µM
GI50 (MCF7): 3.13 µM
GI50 (NCI-H226): 9.98 µM
GI50 (OVCAR-3): 1.89 µM
GI50 (OVCAR-8): 1.89 µM
GI50 (PC-3): 1.91 µM
GI50 (RPMI-8226): 2.51 µM
GI50 (SF-268): 2.23 µM
GI50 (SF-295): 1.73 µM
GI50 (SK-MEL-2): 1.9 µM
GI50 (SK-MEL-5): 1.7 µM
GI50 (SK-OV-3): 4.04 µM
GI50 (SNB-19): 4.46 µM
GI50 (SNB-75): 4.56 µM
GI50 (T-47D): 2.04 µM
GI50 (TK-10): 2.01 µM
GI50 (UACC-62): 2.14 µM
GI50 (UO-31): 1.56 µM
apoptosis (Annexin-V/PI) (DU145 cells): minimal apoptotic effects
apoptosis (Annexin-V/PI) (M12 cells): significantly and dose-dependently induced apoptosis
apoptosis (Annexin-V/PI) (U937 cells): significantly and dose-dependently induced apoptosis
